Test results reported in ChEMBL document CHEMBL1615345, “Evaluation of a published in silico model and construction of a novel Bayesian model for predicting phospholipidosis inducing potential” (J Chem Inf Model, 2007).

Experiments:
Phospholipidosis [1] = conditions: rat
Phospholipidosis [2] = test: Phospholipidosis-positive literature compound observed in human; format: ADME
Phospholipidosis [3] = test: Phospholipidosis-positive literature compound observed in mouse; format: ADME, organism-based; conditions: in vivo
Phospholipidosis [4] = test: Phospholipidosis-positive literature compound observed in rabbit; format: ADME, Oryctolagus cuniculus
Phospholipidosis [5] = test: Phospholipidosis-positive literature compound observed in dog; format: ADME, Canis lupus familiaris
Phospholipidosis [6] = test: Phospholipidosis-positive literature compound observed in Rhesus monkey; format: ADME, Macaca mulatta
Phospholipidosis [7] = test: Phospholipidosis-positive literature compound observed in hamster; conditions: cricetinae
Phospholipidosis [8] = test: Phospholipidosis-positive literature compound observed in monkey; format: ADME; conditions: cercopithecidae
Phospholipidosis [9] = test: Phospholipidosis-positive literature compound observed in guinea pig; format: ADME, Cavia porcellus
Phospholipidosis [10] = system: Phospholipidosis

CN1CCN(Cc2nc3cccc4c3c([n+]2[O-])-c2ccccc2-4)CC1
Phospholipidosis (Phospholipidosis [1]): Active

CN(C)CCC=C1c2ccccc2CCc2c(Cl)cccc21
Phospholipidosis (Phospholipidosis [1]): Active

OC(CN1CCCCC1)c1ccc(C=C2c3ccccc3-c3ccccc32)cc1 (configuration not stated)
Phospholipidosis (Phospholipidosis [1]): Active

CCCC[C@@H]1CC(=O)[C@]2(O)O[C@@H]3[C@@H](NC)[C@@H](O)[C@@H](NC)[C@H](O)[C@H]3O[C@@H]2O1.O=S(=O)(O)O
Phospholipidosis (Phospholipidosis [1]): Active

CN1CCN(C2=Nc3cc(Cl)ccc3N(C)n3cccc32)CC1
Phospholipidosis (Phospholipidosis [1]): Active

CN(C)CCC=C1c2ccccc2C=Cc2c(Cl)cccc21
Phospholipidosis (Phospholipidosis [1]): Active

CCN(CC)CCn1nc2c3c(c(C)ccc31)Sc1cc(Cl)ccc1-2
Phospholipidosis (Phospholipidosis [1]): Active

CCN(CC)Cc1cc(Nc2ccnc3cc(Cl)ccc23)ccc1O.Cl
Phospholipidosis (Phospholipidosis [2]): Active

NC[C@H]1Cc2ccc(F)cc2[C@@H](c2ccccc2)O1
Phospholipidosis (Phospholipidosis [1]): Active

Clc1ccccc1CNC[C@H]1CC[C@H](CNCc2ccccc2Cl)CC1
Phospholipidosis (Phospholipidosis [3]): Active | Phospholipidosis (Phospholipidosis [4]): Active | Phospholipidosis (Phospholipidosis [1]): Active

C[n+]1ccc(-c2cc[n+](C)cc2)cc1
Phospholipidosis (Phospholipidosis [3]): Active

NCC[C@H](O)C(=O)N[C@@H]1C[C@H](N)[C@@H](O[C@H]2O[C@H](CN)[C@@H](O)[C@H](O)[C@H]2O)[C@H](O)[C@H]1O[C@H]1O[C@H](CO)[C@@H](O)[C@H](N)[C@H]1O [AMIKACIN]
Phospholipidosis (Phospholipidosis [1]): Active

CCCCc1oc2ccccc2c1C(=O)c1cc(I)c(OCCN(CC)CC)c(I)c1 [AMIODARONE]
Phospholipidosis (Phospholipidosis [2]): Active | Phospholipidosis (Phospholipidosis [1]): Active

CN(C)CCC=C1c2ccccc2CCc2ccccc21 [AMITRIPTYLINE]
Phospholipidosis (Phospholipidosis [1]): Active

CN(C)CCCN(C)[C@H]1CC[C@H]2[C@@H]3CC=C4C[C@@H](O)CC[C@]4(C)[C@H]3CC[C@]12C [AZACOSTEROL]
Phospholipidosis (Phospholipidosis [3]): Active

FC(F)(F)c1ccc(-c2ccc(OCCN3CCCC3)cc2)cc1 [BOXIDINE]
Phospholipidosis (Phospholipidosis [1]): Active

CN1CCN(C(c2ccccc2)c2ccc(Cl)cc2)CC1 (configuration not stated) [CHLORCYCLIZINE]
Phospholipidosis (Phospholipidosis [1]): Active

CCN(CC)CCCC(C)Nc1ccnc2cc(Cl)ccc12 (configuration not stated) [CHLOROQUINE]
Phospholipidosis (Phospholipidosis [2]): Active | Phospholipidosis (Phospholipidosis [3]): Active | Phospholipidosis (Phospholipidosis [5]): Active | Phospholipidosis (Phospholipidosis [6]): Active | Phospholipidosis (Phospholipidosis [1]): Active

CC(C)(N)Cc1ccc(Cl)cc1 [CHLORPHENTERMINE]
Phospholipidosis (Phospholipidosis [3]): Active | Phospholipidosis (Phospholipidosis [5]): Active | Phospholipidosis (Phospholipidosis [4]): Active | Phospholipidosis (Phospholipidosis [1]): Active

CN(C)CCCN1c2ccccc2Sc2ccc(Cl)cc21 [CHLORPROMAZINE]
Phospholipidosis (Phospholipidosis [5]): Active | Phospholipidosis (Phospholipidosis [1]): Active

CN(C)CCCC1(c2ccc(F)cc2)OCc2cc(C#N)ccc21 (configuration not stated) [CITALOPRAM]
Phospholipidosis (Phospholipidosis [1]): Active

CCC[C@@H]1C[C@@H](C(=O)N[C@@H]([C@H]2O[C@H](SC)[C@H](O)[C@@H](O)[C@H]2O)[C@H](C)Cl)N(C)C1 [CLINDAMYCIN]
Phospholipidosis (Phospholipidosis [5]): Active | Phospholipidosis (Phospholipidosis [1]): Active

CN(C)CCCC1c2ccccc2Nc2ccc(Cl)cc21 (configuration not stated) [CLOMACRAN]
Phospholipidosis (Phospholipidosis [1]): Active

CN(C)CCCN1c2ccccc2CCc2ccc(Cl)cc21 [CLOMIPRAMINE]
Phospholipidosis (Phospholipidosis [1]): Active

CN1CCN(C2=Nc3cc(Cl)ccc3Nc3ccccc32)CC1 [CLOZAPINE]
Phospholipidosis (Phospholipidosis [1]): Active

CCC(c1ccc(OCCN(CC)CC)cc1)C(CC)c1ccc(OCCN(CC)CC)cc1 (configuration not stated) [CORALGIL]
Phospholipidosis (Phospholipidosis [2]): Active | Phospholipidosis (Phospholipidosis [3]): Active | Phospholipidosis (Phospholipidosis [5]): Active | Phospholipidosis (Phospholipidosis [4]): Active | Phospholipidosis (Phospholipidosis [7]): Active | Phospholipidosis (Phospholipidosis [1]): Active

CN1CCN(C(c2ccccc2)c2ccccc2)CC1 [CYCLIZINE]
Phospholipidosis (Phospholipidosis [1]): Active

NC[C@@H]1CC[C@@H](N)[C@@H](O[C@H]2[C@H](O)[C@@H](O[C@H]3O[C@H](CO)[C@@H](O)[C@H](N)[C@H]3O)[C@H](N)C[C@@H]2N)O1 [DIBEKACIN]
Phospholipidosis (Phospholipidosis [1]): Active

CC(C)N(CCC(CCN1CCCCC1)(C(N)=O)c1ccccc1Cl)C(C)C (configuration not stated) [DISOBUTAMIDE]
Phospholipidosis (Phospholipidosis [5]): Active | Phospholipidosis (Phospholipidosis [8]): Active | Phospholipidosis (Phospholipidosis [1]): Active

CC[C@H]1CN2CCc3cc(OC)c(OC)cc3[C@@H]2C[C@@H]1C[C@H]1NCCc2cc(OC)c(OC)cc21 [EMETINE]
Phospholipidosis (Phospholipidosis [1]): Active

CC[C@H]1OC(=O)[C@H](C)[C@@H](O[C@H]2C[C@@](C)(OC)[C@@H](O)[C@H](C)O2)[C@H](C)[C@@H](O[C@@H]2O[C@H](C)C[C@H](N(C)C)[C@H]2O)[C@](C)(O)C[C@@H](C)C(=O)[C@H](C)[C@@H](O)[C@]1(C)O [ERYTHROMYCIN]
Phospholipidosis (Phospholipidosis [5]): Active | Phospholipidosis (Phospholipidosis [1]): Active

CCOC(=O)C1N=C(c2ccccc2F)c2cc(Cl)ccc2NC1=O (configuration not stated) [ETHYL LOFLAZEPATE]
Phospholipidosis (Phospholipidosis [1]): Active

CCNC(C)Cc1cccc(C(F)(F)F)c1 (configuration not stated) [FENFLURAMINE]
Phospholipidosis (Phospholipidosis [5]): Active | Phospholipidosis (Phospholipidosis [9]): Active | Phospholipidosis (Phospholipidosis [1]): Active

CN1CCCN(C(c2ccccc2)c2ccc(Cl)cc2)CC1 (configuration not stated) [HOMOCHLORCYCLIZINE]
Phospholipidosis (Phospholipidosis [1]): Active

OCCOCCN1CCN(C(c2ccccc2)c2ccc(Cl)cc2)CC1 (configuration not stated) [HYDROXYZINE]
Phospholipidosis (Phospholipidosis [1]): Active

CN(C)CCCN1c2ccccc2CCc2ccccc21 [IMIPRAMINE]
Phospholipidosis (Phospholipidosis [1]): Active

O=C(NC1CCN(CCc2c[nH]c3ccccc23)CC1)c1ccccc1 [INDORAMIN]
Phospholipidosis (Phospholipidosis [1]): Active

CN(C)CCCn1c2c(c3ccccc31)CCCCCC2 [IPRINDOLE]
Phospholipidosis (Phospholipidosis [1]): Active

CC(=O)N1CCN(c2ccc(OCC3COC(Cn4ccnc4)(c4ccc(Cl)cc4Cl)O3)cc2)CC1 (configuration not stated) [KETOCONAZOLE]
Phospholipidosis (Phospholipidosis [3]): Active

CNCCCC12CCC(c3ccccc31)c1ccccc12 [MAPROTILINE]
Phospholipidosis (Phospholipidosis [1]): Active

Cc1cccc(CN2CCN(C(c3ccccc3)c3ccc(Cl)cc3)CC2)c1 (configuration not stated) [MECLIZINE]
Phospholipidosis (Phospholipidosis [1]): Active

CCN[C@@H]1C[C@H](N)[C@@H](O[C@H]2OC(CN)=CC[C@H]2N)[C@H](O)[C@H]1O[C@H]1OC[C@](C)(O)[C@H](NC)[C@H]1O [NETILMICIN]
Phospholipidosis (Phospholipidosis [1]): Active

Clc1ccc(C(c2ccccc2)N2CCNCC2)cc1 (configuration not stated) [NORCHLORCYCLIZINE]
Phospholipidosis (Phospholipidosis [1]): Active

NCCc1cc(O)c(O)cc1O [OXIDOPAMINE]
Phospholipidosis (Phospholipidosis [1]): Active

C1CCC(C(CC2CCCCN2)C2CCCCC2)CC1 (configuration not stated) [PERHEXILINE]
Phospholipidosis (Phospholipidosis [2]): Active | Phospholipidosis (Phospholipidosis [3]): Active | Phospholipidosis (Phospholipidosis [1]): Active

CCOc1ccc(NC(C)=O)cc1 [PHENACETIN]
Phospholipidosis (Phospholipidosis [1]): Active

CCN(CC)CCCC(C)Nc1c2ccc(Cl)cc2nc2ccc(OC)cc12 (configuration not stated) [QUINACRINE]
Phospholipidosis (Phospholipidosis [1]): Active

N=C(N)c1ccc(/C=C/c2ccc(C(=N)N)cc2)cc1 [STILBAMIDINE]
Phospholipidosis (Phospholipidosis [2]): Active

Cc1ccc(C(=O)Nc2ccc(S(=O)(=O)O)c3cc(S(=O)(=O)O)cc(S(=O)(=O)O)c23)cc1NC(=O)c1cccc(NC(=O)Nc2cccc(C(=O)Nc3cc(C(=O)Nc4ccc(S(=O)(=O)O)c5cc(S(=O)(=O)O)cc(S(=O)(=O)O)c45)ccc3C)c2)c1 [SURAMIN]
Phospholipidosis (Phospholipidosis [1]): Active

CC/C(=C(\c1ccccc1)c1ccc(OCCN(C)C)cc1)c1ccccc1 [TAMOXIFEN]
Phospholipidosis (Phospholipidosis [1]): Active

CCN(CC)CCOc1ccc2c(c1)C(=O)c1cc(OCCN(CC)CC)ccc1-2 [TILORONE]
Phospholipidosis (Phospholipidosis [2]): Active | Phospholipidosis (Phospholipidosis [1]): Active

NC[C@H]1O[C@H](O[C@H]2[C@H](O)[C@@H](O[C@H]3O[C@H](CO)[C@@H](O)[C@H](N)[C@H]3O)[C@H](N)C[C@@H]2N)[C@H](N)C[C@@H]1O [TOBRAMYCIN]
Phospholipidosis (Phospholipidosis [2]): Active | Phospholipidosis (Phospholipidosis [1]): Active

CCN(CC)CCOc1ccc(C(O)(Cc2ccc(Cl)cc2)c2ccc(C)cc2)cc1 (configuration not stated) [TRIPARANOL]
Phospholipidosis (Phospholipidosis [3]): Active | Phospholipidosis (Phospholipidosis [7]): Active | Phospholipidosis (Phospholipidosis [1]): Active

CC(c1cc2ccccc2s1)N(O)C(N)=O (configuration not stated) [ZILEUTON]
Phospholipidosis (Phospholipidosis [10]): Not Active

CN(C)C/C=C(/c1ccc(Br)cc1)c1cccnc1 [ZIMELDINE]
Phospholipidosis (Phospholipidosis [5]): Active | Phospholipidosis (Phospholipidosis [1]): Active

GENTAMICIN
Phospholipidosis (Phospholipidosis [2]): Active | Phospholipidosis (Phospholipidosis [5]): Active | Phospholipidosis (Phospholipidosis [1]): Active
